# How the values were obtained:
# [1] = test system: fractions de xylème de peuplier; test: Incorporation of cinnamic acid (14C3) into lignins by isolated poplar xylem fractions; assay type: cell-based; settings: for Taux de radio-activité incorporé dans les lignines (%) / Radioactivité absorbée (µCi/essai) / Radioactivité incorporée dans les lignines (µCi/essai): 30 h; for Radioactivité absorbée (µCi/essai) / Radioactivité incorporée dans les lignines (µCi/essai): mean of 3; for inhibition at 200 µM / inhibition at 1000 µM: relative to % incorporated in the control = 100
# Experimental: Les tissus de xylème isolés (300 mg par essai) sont mis en suspension dans des fioles d'erlenmeyer (25ml), bouchées par du coton cardé contenant : • - du tampon Tris/HCl, O,lM, pH 7,5 (qsp Sml) maintenant le pH entre 7 et 8, • - du Dextran T40 (25 g/1) utilisé comme agent osmotique, ne constituant pas une source de carbone pour la cellule végétale, • - du mercaptoéthanol (O,lmM), antioxydant qui empêche un brunissement très rapide des tissus, • - de l'éther monométhylique de l'éthylène glycol (EMMEG) (50 µl) ou des inhibiteurs solubilisés dans ce polyol (5^0 µ1), • - de l'acide cinnamique (^14C3) (2,5 µCi).
# Les fioles sont palcées à 26°C, sous agitation orbitale (agitateur New Brunswick modèle G 10,100 rpm) et sous un éclairement de 4000 lux pendant 30 h. La radioactivité incorporée par les lignines est alors estimée à partir de "poudre alcool-benzène" obtenu par extraction à l'alcool-benzène des fractions tissulaires lyophilisées et réduites en poudre.
# Afin de mesurer l'absorption de l'acide cinnamique par les fractions tissulaires et de corriger d'éventuelles différences d'absorption selon les essais, une fraction aliquote du milieu d'incubation (50 µl) est prélevée à différents temps et la radioactivité estimée au compteur à scintillation liquide.
# La mesure de la radioactivité libérée sous forme de ^14CO2 après combustion totale des "poudres alcool-benzène" révèle qu'en présence du OHPAS ou du NH2PAS, on observe une baisse de la radioactivité retrouvée dans les lignines. Ainsi, ces inhibiteurs entraînent à la concentration de lmM, une inhibition de 40 à 70% de la synthèse des lignines radioactives. Ces résultats sont rapportés dans le tableau 3 ci-après : […]
# [2] = test system: plants de maïs; test: Growth of maize plants treated with the inhibitors (weights, water content); assay type: in vivo
# Experimental: Des plants de maïs ont été traités pendant 10, 20 ou 30 jours par l'OHPAS et le NH2PAS à deux concentrations (80 et 160 µM).
# Les .inhibiteurs sont ajoutés au milieu nutritif.
# Les cultures sur vermiculite (20 plants) sont arrosées quotidiennement par 250 ml de milieu (avec ou sans inhibiteurs). Les semis constituent le temps 0 de la culture, l'addition des inhibiteurs au milieu nutritif est réalisée dès l'émergence de la partie aérienne (2 à 3 jours). Les différentes caractéristiques des plants sont estimées après 10, 20 ou 30 jours.
# Le traitement par les deux inhibiteurs conduit à des plants de maïs dont les caractéristiques pondérales et les teneurs en eau sont données dans le tableau 4. L'analyse des résultats ne montre aucune différence significative entre les plants traités et les plants témoins. De même, les tailles et l'aspect morphologique des différents lots sont similaires. Toutefois, on constate que le port dressé des maïs est légèrement affecté.
# [3] = test system: plants de mais; test: Primary metabolism of treated maize plants (soluble proteins, chlorophylls, nucleic acids); assay type: in vivo; settings: plants âgés de 30 jours; 80 µM
# Experimental: (§1) Les différentes études dont les résultats sont rapportés ci-après ont été réalisées à partir de plants de mais âgés de 30 jours et traités par l'OHPAS et le NH2PAS à la concentration de 80 µM.
# Afin d'estimer l'action de l'OHPAS et du NH2PAS sur le métabolisme primaire, les teneurs de trois classes de composés ont été estimées : les protéines solubles, les chlorophyllles et les acides nucléiques.
# [4] = test system: plants de maïs; test: Cell-wall polysaccharide content of treated maize plants; assay type: in vivo; settings: plants âgés de 30 jours; 80 µM
# Experimental: as §1
# Le dosage de l'ensemble des polysaccharides pariétaux mais également de la fraction cellulosique n'a révélé aucune différence significative entre les plants témoins et les plants traités.
# [5] = test system: plants de luzerne; test: Lignin content of 30-day alfalfa plants; assay type: in vivo; settings: plants de luzerne de 30 jours
# Source text: 6) Effets des inhibiteurs sur la teneur en lignines de plants de luzerne de 30 jours : • Le protocole est le même que celui décrit pour les plants de mais.
# On rapporte dans le tableau 7 ci-après les pourcentages d'inhibition obtenus en fonction de la concentration en produit.
# [6] = molecular target: T1, CAD de peuplier (Populus deltoides, UniProt P31657); test: In vitro inhibition of isolated poplar cinnamyl alcohol dehydrogenase (CAD) at 2 mM; assay type: biochemical; settings: mode of action study
# T1 construct: CAD de peuplier isolée selon la méthode deSARNI et al,1984; from tissue; host or cells: poplar plant material
# T1 sequence (P31657 1-357): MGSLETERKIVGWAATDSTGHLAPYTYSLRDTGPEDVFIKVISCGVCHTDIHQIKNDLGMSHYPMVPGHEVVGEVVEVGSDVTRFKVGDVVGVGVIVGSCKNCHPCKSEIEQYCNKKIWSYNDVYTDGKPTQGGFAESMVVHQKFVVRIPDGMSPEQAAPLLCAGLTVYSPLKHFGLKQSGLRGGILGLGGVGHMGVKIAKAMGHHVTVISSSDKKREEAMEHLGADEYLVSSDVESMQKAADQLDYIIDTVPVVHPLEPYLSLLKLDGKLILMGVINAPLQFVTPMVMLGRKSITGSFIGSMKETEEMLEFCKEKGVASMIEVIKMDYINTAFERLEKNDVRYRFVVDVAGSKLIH
# [7] = 10 jours de culture, 160 µm en inhibiteurs
# [8] = 10 jours de culture, concentration not given
# [9] = 10 jours de culture, concentration not given, mean of 20 plants
# [10] = 20 jours de culture, 160 µm en inhibiteurs
# [11] = 20 jours de culture, concentration not given
# [12] = 30 jours de culture, 160 µm en inhibiteurs
# [13] = 30 jours de culture, concentration not given
Structure (SMILES),"Taux de radio-activité incorporé dans les lignines (%) ([1]; 0,2mM)","Radioactivité absorbée (µCi/essai) ([1]; 0,2mM)","Radioactivité incorporée dans les lignines (µCi/essai) ([1]; 0,2mM)","inhibition at 200 µM ([1]; 0,2mM) [%]",Taux de radio-activité incorporé dans les lignines (%) ([1]; 1mM),Radioactivité absorbée (µCi/essai) ([1]; 1mM),Radioactivité incorporée dans les lignines (µCi/essai) ([1]; 1mM),inhibition at 1000 µM ([1]; 1mM) [%],"Poids matériel frais g/plant [2, 7]","Poids matériel sec g/plant [2, 7]","Teneur en eau g/g de poids sec [2, 7]","Poids matériel sec g/plant [2, 8]","Teneur en eau g/g de poids sec [2, 8]","Poids matériel frais g/plant [2, 9]","Poids matériel frais g/plant [2, 10]","Poids matériel sec g/plant [2, 10]","Teneur en eau g/g de poids sec [2, 10]","Poids matériel frais g/plant [2, 11]","Poids matériel sec g/plant [2, 11]","Teneur en eau g/g de poids sec [2, 11]",also measured
"CC(C)(C)OC(=O)C[S+]([O-])Nc1ccccc1O (centres unmarked) [composé 2, N-(o -hydroxy phényl)sulfinamoyl acétate de tertiobutyle]",24,"0,75 µCi/essai","0,18 µCi/essai",17,10,"0,75 µCi/essai","0,075 µCi/essai",70,"0,98 g/plant","0,083 g/plant","10,81 g/g de poids sec","0,103 g/plant","18,40 g/g de poids sec","2,00 g/plant","2,98 g/plant","0,300 g/plant","8,93 g/g de poids sec","3,20 g/plant","0,318 g/plant","9,06 g/g de poids sec","Poids matériel frais g/plant [2, 12]: 4,52 g/plant; Poids matériel sec g/plant [2, 12]: 0,429 g/plant; Teneur en eau g/g de poids sec [2, 12]: 9,53 g/g de poids sec; Poids matériel frais g/plant [2, 13]: 4,65 g/plant; Poids matériel sec g/plant [2, 13]: 0,420 g/plant; Teneur en eau g/g de poids sec [2, 13]: 10,07 g/g de poids sec; ADN (mg/g PS) [3]: 1,35 ± 0,6 mg/g PS; ARN (mg/g PS) [3]: 21,08 ± 0,3 mg/g PS; Chlorophylles (mg/g PS) [3]: 7,80 ± 0,3 mg/g PS; Protéines solubles (mg/g PS) [3]: 49,50 ± 1 mg/g PS; synthèse de la fraction polysaccharidique de la paroi [4]: n'apparaîssent pas affecter; % d'inhibition (teneur en lignines) ([5]; 25 µM): 13%; % d'inhibition (teneur en lignines) ([5]; 50 µM): 31%; réversibilité de l'inhibition de la CAD [6]: faiblement réversible"
"CC(C)(C)OC(=O)C[S+]([O-])Nc1ccccc1N (centres unmarked) [composé 5, N-(o-Amino phényl)Sulfinamoyl Acétate de tertiobutyle]",32,"0,80 µCi/essai","0,26 µCi/essai",4,20,"0,80 µCi/essai","0,16 µCi/essai",40,"1,00 g/plant","0,088 g/plant","13,36 g/g de poids sec","0,108 g/plant","15,70 g/g de poids sec","1,80 g/plant","3,25 g/plant","0,321 g/plant","9,12 g/g de poids sec","3,00 g/plant","0,298 g/plant","9,07 g/g de poids sec","Poids matériel frais g/plant [2, 12]: 4,80 g/plant; Poids matériel sec g/plant [2, 12]: 0,458 g/plant; Teneur en eau g/g de poids sec [2, 12]: 9,48 g/g de poids sec; Poids matériel frais g/plant [2, 13]: 4,40 g/plant; Poids matériel sec g/plant [2, 13]: 0,438 g/plant; Teneur en eau g/g de poids sec [2, 13]: 9,04 g/g de poids sec; ADN (mg/g PS) [3]: 1,38 ± 0,7 mg/g PS; ARN (mg/g PS) [3]: 19,81 ± 0,2 mg/g PS; Chlorophylles (mg/g PS) [3]: 7,69 ± 0,3 mg/g PS; Protéines solubles (mg/g PS) [3]: 49,30 ± 2 mg/g PS; synthèse de la fraction polysaccharidique de la paroi [4]: n'apparaîssent pas affecter; % d'inhibition (teneur en lignines) ([5]; 25 µM): 20%; % d'inhibition (teneur en lignines) ([5]; 50 µM): 17%; réversibilité de l'inhibition de la CAD [6]: faiblement réversible"
